Where only a bound is given, the exact number is not on record here.

This experiment concerns alpha-smooth muscle actin (α-SMA). Kind of experiment: Inhibition of TGF-β induced expression of alpha-smooth muscle actin (α-SMA) in CFSC cells, western blot. The following applies: compound at 10 μM, TGF-β (10 ng/mL), 24 hours, decrease in band intensity vs TGF-β only. The format is cell-based. The protocol:
The ability of a compound to inhibit the TGF-β induced expression of alpha-smooth muscle actin (α-SMA) was evaluated in CCL4-treated fat storing (CFSC) cells. α-SMA is considered as a reliable marker of hepatic stellate cell activation and a key biomarker for liver fibrosis. See, e.g., Meng et al., Nat. Rev. Nephrol. 2016, 12, 325-38; Fabregat et al., FEBS J. 2016, 283, 2219-32.
CFSC cells maintained in a DMEM medium supplemented with 10% fetal bovine serum were seeded to 12-well culture dishes and grown to a confluence of 60-70% the next day. Culture was changed to a serum-free DMEM medium and treated with a compound at 10 μM in the presence of TGF-β (10 ng/mL). The cells were incubated for another 24 hours. All culture was maintained at 37° C. in 5% carbon dioxide.
A NP-40 lysate solution (50 mM Tris (pH 7.4), 150 mM NaCl, 1% NP-40) with EDTA free cocktail added was used to lyse the cells on ice for 30 min. The lysate was collected and centrifuged at 4° C. for 10 min at 12,000 rpm. The pellet was discarded and the supernatant was transferred to a new tube. Cell lysates were loaded with 5×loading buffer and boiled for 10 min, resolved by 10% SDS-polyacrylamide gel electrophoresis (SDS-PAGE), and transferred to PVDF membrane. The membrane was blocked with 5% skim milk in Tris-buffered saline and TWEEN® 20 (TBST; 10 mM Tris-HCl (pH 8.0), 150 mM NaCl, 0.1% TWEEN® 20) for 1 h at room temperature and then incubated with α-SMA and […] antibodies overnight at 4° C. After washing twice with TBST, the membrane was probed with a horseradish […] anti-immunoglobulin (1:5000 dilution) for 1 h at room temperature. After two subsequent rinses in TBST, immunoreactive products were reacted with ECL and visualized by a UVP CHEMSTUDIO™ imaging system. The western blotting bands are quantitated using an ImageJ software. The percentage of inhibition was obtained by calculating the percentage decrease in the band intensity compared to the one treated with TGF-β only.
The results are summarized in Table 1, wherein A represents a value no less of 90% inhibition, B represents a value less than 90% but no less than 80% inhibition, C represents a value less than 80% but no less than 70% inhibition, D represents a value less than 70% but no less than 50% inhibition, and E represents a value less than 50% with a compound at 10 μM.
A general note: Immunoblotting shows a protein as a band on a membrane.
The term inhibition denotes the drop in the measured response relative to a control, in per cent. `CC1=C(CC(=O)O)c2cc(F)ccc2/C1=C\c1ccc(Oc2ccccc2)cc1` [Compound A1, 2-[(1Z)-5-Fluoro-2-methyl-1-[(4-phenoxyphenyl)methylidene]-1H-inden-3-yl]acetic acid]: the inhibition at 10 µM was > 90%. Consider `COc1ccc(Oc2ccc(/C=C3/C(C)=C(CC(=O)O)c4cc(F)ccc43)cc2)cc1` [Compound A2, 2-[(1Z)-5-Fluoro-1-{[4-(4-methoxyphenoxy)phenyl]methylidene}-2-methyl-1H-inden-3-yl]acetic acid], for which the inhibition at 10 µM is > 90%.

In the case of `CC1=C(CC(=O)O)c2cc(F)ccc2/C1=C\c1ccc(Oc2cccc(C(F)(F)F)c2)cc1Cl` [Compound A3, 2-[(1Z)-1-({2-Chloro-4-[3-(trifluoromethyl)phenoxy]phenyl}methylidene)-5-fluoro-2-methyl-1H-inden-3-yl]acetic acid], the inhibition at 10 µM is > 90%.

In the case of `CC1=C(CC(=O)O)c2cc(F)ccc2/C1=C\c1ccc(Oc2ccc(C)cc2)cc1` [Compound A4, 2-[(1Z)-5-Fluoro-2-methyl-1-{[4-(4-methylphenoxy)phenyl]methylidene}-1H-inden-3-yl]acetic acid], the inhibition at 10 µM is > 90%.

With `CC1=C(CC(=O)O)c2cc(F)ccc2/C1=C\c1ccc(Oc2ccc(C(C)C)cc2)cc1` [Compound A5, 2-[(1Z)-5-Fluoro-2-methyl-1-({4-[4-(propan-2-yl)phenoxy]phenyl}methylidene)-1H-inden-3-yl]acetic acid], the inhibition at 10 µM was > 90%. The figure for `CC1=C(CC(=O)O)c2cc(F)ccc2/C1=C\c1ccc(Oc2ccc(Br)cc2)cc1` [Compound A6, 2-[(1Z)-1-{[4-(4-Bromophenoxy)phenyl]methylidene}-5-fluoro-2-methyl-1H-inden-3-yl]acetic acid] is > 90%.

Turning to `CC1=C(CC(=O)O)c2cc(F)ccc2/C1=C\c1ccc(Oc2cccc(C)c2)cc1` [Compound A7, 2-[(1Z)-5-Fluoro-2-methyl-1-{[4-(3-methylphenoxy)phenyl]methylidene}-1H-inden-3-yl]acetic acid], the inhibition at 10 µM was > 90%. The figure for `CC1=C(CC(=O)O)c2cc(F)ccc2/C1=C\c1ccc(Oc2cccc(C(F)(F)F)c2)cc1` [Compound A9, (Z)-2-(5-Fluoro-2-methyl-1-(4-(3-(trifluoromethyl)phenoxy)benzylidene)-1H-inden-3-yl)acetic acid] is > 90%; for `CCc1ccc(Oc2ccc(/C=C3/C(C)=C(CC(=O)O)c4cc(F)ccc43)cc2)cc1` [Compound A10, 2-[(1Z)-1-{[4-(4-Ethylphenoxy)phenyl]methylidene}-5-fluoro-2-methyl-1H-inden-3-yl]acetic acid] it is > 90%; for `COc1ccc(Oc2ccc(/C=C3/C(C)=C(CC(=O)O)c4cc(F)ccc43)c(Cl)c2)cc1` [Compound A12, 2-[(1Z)-1-{[2-Chloro-4-(4-methoxyphenoxy)phenyl]methylidene}-5-fluoro-2-methyl-1H-inden-3-yl]acetic acid] it is > 90%. As for `COc1cc(Oc2ccc(C(C)C)cc2)ccc1/C=C1/C(C)=C(CC(=O)O)c2cc(F)ccc21` [Compound A13, 2-[(1Z)-5-Fluoro-1-({2-methoxy-4-[4-(propan-2-yl)phenoxy]phenyl}-methylidene)-2-methyl-1H-inden-3-yl]acetic acid], the inhibition at 10 µM was < 50%. The figure for `CC1=C(CC(=O)O)c2cc(F)ccc2/C1=C\c1ccc(Oc2ccc3ccccc3c2)cc1` [Compound A14, 2-[(1Z)-5-Fluoro-2-methyl-1-{[4-(naphthalen-2-yloxy)phenyl]methylidene}-1H-inden-3-yl]acetic acid] is > 90%; for `CC1=C(CC(=O)O)c2cc(F)ccc2/C1=C\c1ccc(Oc2ccc(C(C)C)cc2)cc1Cl` [Compound A15, 2-[(1Z)-1-({2-Chloro-4-[4-(propan-2-yl)phenoxy]phenyl}methylidene)-5-fluoro-2-methyl-1H-inden-3-yl]acetic acid] it is 80 to 90%; for `CC1=C(CC(=O)O)c2cc(F)ccc2/C1=C\c1ccc(Oc2ccc(F)cc2F)cc1` [Compound A16, 2-[(1Z)-1-{[4-(2,4-Difluorophenoxy)phenyl]methylidene}-5-fluoro-2-methyl-1H-inden-3-yl]acetic acid] it is > 90%. The figure for `CC1=C(CC(=O)O)c2cc(F)ccc2/C1=C\c1ccc(Oc2ccc(F)cc2Br)cc1` [Compound A17, 2-[(1Z)-1-{[4-(2-bromo-4-fluorophenoxy)phenyl]methylidene}-5-fluoro-2-methyl-1H-inden-3-yl]acetic acid] is > 90%.

In turn, `CC1=C(CC(=O)O)c2cc(F)ccc2/C1=C\c1ccc(Oc2cc(F)c(F)cc2F)cc1` [Compound A18, 2-[(1Z)-5-Fluoro-2-methyl-1-{[4-(2,4,5-trifluorophenoxy)phenyl]methylidene}-1H-inden-3-yl]acetic acid] came in with an inhibition at 10 µM of 70 to 80%. The figure for `CC1=C(CCC(=O)O)c2ccccc2/C1=C\c1ccc(Oc2ccc(F)cc2)cc1` [Compound A19, 3-[(1Z)-1-{[4-(4-Fluorophenoxy)phenyl]methylidene}-2-methyl-1H-inden-3-yl]propanoic acid] is > 90%.

Regarding `CC1=C(CC(=O)O)c2cc(F)ccc2/C1=C\c1ccc(Oc2ccc(F)nc2)cc1` [Compound A20, 2-[(1Z)-5-Fluoro-1-({4-[(6-fluoropyridin-3-yl)oxy]phenyl}methylidene)-2-methyl-1H-inden-3-yl]acetic acid], the inhibition at 10 µM was < 50%.

In the case of `CC1=C(CC(=O)O)c2cc(F)ccc2/C1=C\c1ccc(Oc2cnc(F)c(C)c2)cc1` [Compound A21, 2-[(1Z)-5-Fluoro-1-({4-[(6-fluoro-5-methylpyridin-3-yl)oxy]phenyl}-methylidene)-2-methyl-1H-inden-3-yl]acetic acid], the inhibition at 10 µM fell in the range of 80 to 90%.

With `CC1=C(CC(=O)O)c2cc(F)ccc2/C1=C\c1ccc(Oc2cccc3ncccc23)cc1` [Compound A22, (Z)-2-(5-Fluoro-2-methyl-1-(4-(quinolin-5-yloxy)benzylidene)-1H-inden-3-yl)acetic acid], the inhibition at 10 µM lay in the range of 50 to 70%. The figure for `CC1=C(CC(=O)NO)c2cc(F)ccc2/C1=C\c1ccc(Oc2ccccc2)cc1` [Compound A23, 2-[(1Z)-5-Fluoro-2-methyl-1-[(4-phenoxyphenyl)methylidene]-1H-inden-3-yl]-N-hydroxyacetamide] is > 90%; for `CC1=C(CC(=O)NO)c2cc(F)ccc2/C1=C\c1ccc(Oc2ccc(F)cc2)cc1` [Compound A24, 2-[(1Z)-5-Fluoro-1-{[4-(4-fluorophenoxy)phenyl]methylidene}-2-methyl-1H-inden-3-yl]-N-hydroxyacetamide] it is 80 to 90%. The figure for `CC1=C(CC(N)=O)c2cc(F)ccc2/C1=C\c1ccc(Oc2ccc(F)cc2)cc1` [Compound A25, 2-[(1Z)-5-Fluoro-1-{[4-(4-fluorophenoxy)phenyl]methylidene}-2-methyl-1H-inden-3-yl]acetamide] is 70 to 80%; for `CNC(=O)CC1=C(C)/C(=C/c2ccc(Oc3ccc(F)cc3)cc2)c2ccc(F)cc21` [Compound A26, 2-[(1Z)-5-Fluoro-1-{[4-(4-fluorophenoxy)phenyl]methylidene}-2-methyl-1H-inden-3-yl]-N-methylacetamide] it is 70 to 80%. The figure for `CC1=C(CC(=O)NCCO)c2cc(F)ccc2/C1=C\c1ccc(Oc2ccc(F)cc2)cc1` [Compound A27, 2-[(1Z)-5-Fluoro-1-{[4-(4-fluorophenoxy)phenyl]methylidene}-2-methyl-1H-inden-3-yl]-N-(2-hydroxyethyl)acetamide] is 80 to 90%; for `CC1=C(CC(=O)O)c2cc(F)ccc2/C1=C\c1ccc(N(C)c2ccccc2)cc1` [Compound A29, 2-[(1Z)-5-Fluoro-2-methyl-1-({4-[methyl(phenyl)amino]phenyl}methylidene)-1H-inden-3-yl]acetic acid] it is 70 to 80%.

Consider `CC1=C(CC(=O)O)c2cc(F)ccc2/C1=C\c1ccc(N(Cc2ccccc2)c2ccc(F)cc2)cc1` [Compound A30, 2-[(1Z)-1-({4-[Benzyl(4-fluorophenyl)amino]phenyl}methylidene)-5-fluoro-2-methyl-1H-inden-3-yl]acetic acid], for which the inhibition at 10 µM lay in the range of 70 to 80%. Take `CC1=C(CC(=O)O)c2cc(F)ccc2/C1=C\c1ccc(N(C)c2ccc(F)cc2)cc1` [Compound A31, 2-[(1Z)-5-Fluoro-1-({4-[(4-fluorophenyl)(methyl)amino]phenyl}methylidene)-2-methyl-1H-inden-3-yl]acetic acid]: the inhibition at 10 µM was > 90%.

Values taken from US12649712B2, “Indene compounds, pharmaceutical compositions thereof, and their therapeutic applications” (NucMito Pharmaceuticals Co. Ltd., priority 2020, dated 2026).
